Measured values from ChEMBL document CHEMBL1201862, “PubChem BioAssay data set” (2004).
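Compound exposure: 48 hours, 5 concentrations, 96-well plates. GI50 = concentration required for 50% inhibition of growth.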 The source made the active and inactive calls. Rule as the data show it: active = GI50 up to about 1.1 µM and inactive = higher. *1 amine or outer side, *2 acyl side, *3 side chain or, on linkers, in order; H or OH if unused. Where a SMILES comes first, the peptide text is derived from it. Bridges are numbered along the chain shown (N, C = ends). [ ]: non-standard residue; d: D form. The star is where a group is joined. ξ: configuration not given here. ξOrn(4,5-diOH) = O=C(C(CC(O)C(O)N[*:3])N[*:1])[*:2]; ξhTyr(βξ-OH,γξ-OH) = NC(C(=O)O)C(O)C(O)c1ccc(O)cc1; ξPro(3ξ-OH,4ξ-Me) = CC1CNC(C(=O)O)C1O; X55 = CCCCC/C=C/C/C=C\CCCCCCCC(=O)*; Hyp = O=C(O)[CH]1C[CH](O)CN1

Assays:
Experiment in all cases: NCI tumour cell line growth inhibition, 48 h
[1] = tested on: HCT-116
[2] = tested on: SNB-75
[3] = tested on: SK-MEL-5
[4] = tested on: MOLT-4
[5] = tested on: HT-29
[6] = tested on: ACHN
[7] = tested on: MDA-MB-435
[8] = tested on: COLO 205
[9] = tested on: SK-MEL-28
[10] = tested on: M14
[11] = tested on: Malme-3M
[12] = tested on: SR
[13] = tested on: SF-295
[14] = tested on: HOP-92
[15] = tested on: IGROV-1
[16] = tested on: HL-60
[17] = tested on: KM12
[18] = tested on: OVCAR-3
[19] = tested on: BT-549
[20] = tested on: NCI-H23

SMILES | GI50 [1] | GI50 [2] | GI50 [3] | GI50 [4] | GI50 [5] | GI50 [6] | GI50 [7] | GI50 [8] | GI50 [9] | GI50 [10] | GI50 [11] | GI50 [12] | GI50 [13] | GI50 [14] | GI50 [15] | GI50 [16] | GI50 [17] | GI50 [18] | GI50 [19] | GI50 [20]
COc1oc(C(=O)NC2CCCCC2)c(-c2ccc(Cl)cc2)c1S(=O)(=O)c1ccccc1 | 33.3 µM (inactive) | 20.8 µM (inactive) | 28.1 µM (inactive) | 6.79 µM (inactive) | 2.26 µM (inactive) | 31 µM (inactive) | 9.86 µM (inactive) | 15.5 µM (inactive) | 49.3 µM (inactive) | 26.9 µM (inactive) | 11.7 µM (inactive) | 5.51 µM (inactive) | 23.4 µM (inactive) | 1.5 µM (inactive) | 1.82 µM (inactive) | 2.4 µM (inactive) | 5.55 µM (inactive) | 1.89 µM (inactive) | 5.55 µM (inactive) | 
O=C(O)c1ccc(SSc2ccc(C(=O)O)cn2)nc1 | > 100 µM (inactive) | > 100 µM (inactive) | > 100 µM (inactive) | > 100 µM (inactive) | > 100 µM (inactive) | > 100 µM (inactive) | > 100 µM (inactive) | > 100 µM (inactive) | > 100 µM (inactive) | > 100 µM (inactive) | > 100 µM (inactive) | > 100 µM (inactive) | > 100 µM (inactive) | > 100 µM (inactive) | > 100 µM (inactive) | > 100 µM (inactive) | > 100 µM (inactive) | > 100 µM (inactive) | > 100 µM (inactive) | > 100 µM (inactive)
C=CC[C@@]1(C)CCCCCCCCC[C@@](C)(CC=C)C1=O | 32.9 µM (inactive) | 31.5 µM (inactive) | 16 µM (inactive) | 20.4 µM (inactive) | 18.7 µM (inactive) | 34.6 µM (inactive) | 46.9 µM (inactive) | 19.6 µM (inactive) | 34.1 µM (inactive) | 28.6 µM (inactive) | 25.7 µM (inactive) | 27.5 µM (inactive) | 21.1 µM (inactive) | 46.8 µM (inactive) | 31 µM (inactive) | 20.7 µM (inactive) | 30.1 µM (inactive) | 19 µM (inactive) | 27.4 µM (inactive) | 25.5 µM (inactive)
COC(=O)[C@]12CCC(C)(C)C[C@H]1[C@H]1C(=O)C=C3[C@@]4(C)C=C(C#N)C(=O)C(C)(C)[C@@H]4CC[C@@]3(C)[C@]1(C)CC2 [BARDOXOLONE METHYL] | 0.0131 µM (active) | 0.139 µM (active) | 0.0286 µM (active) | < 0.01 µM (active) | 0.0552 µM (active) | 0.0285 µM (active) | 0.0164 µM (active) | 0.0199 µM (active) | 0.0759 µM (active) | 0.0171 µM (active) | 0.0667 µM (active) | 0.0245 µM (active) | 0.0289 µM (active) | 0.0769 µM (active) | 0.0405 µM (active) | < 0.0138 µM (active) | 0.0163 µM (active) | 0.0103 µM (active) | 0.0339 µM (active) | 0.0156 µM (active)
Cc1c(C#N)c2nnn(-c3cccc(Cl)c3)c(=O)n2c1-c1ccccc1 | 2.03 µM (inactive) | 1.76 µM (inactive) | 3.84 µM (inactive) |  | 1.28 µM (inactive) | 6.4 µM (inactive) | 0.566 µM (active) | 0.849 µM (active) | 32.3 µM (inactive) | 4.17 µM (inactive) | 9.48 µM (inactive) | 0.301 µM (active) | 1.45 µM (inactive) | 26 µM (inactive) | 2.54 µM (inactive) | 3.28 µM (inactive) | 0.895 µM (active) | 1.65 µM (inactive) | 18.1 µM (inactive) | 8.77 µM (inactive)
CC(C)(Cc1ccccc1)Cc1cc(O)ccc1O | 15.8 µM (inactive) | 23 µM (inactive) |  | 14.8 µM (inactive) | 20.6 µM (inactive) | 20.8 µM (inactive) | 17.2 µM (inactive) | 19.2 µM (inactive) | 21.8 µM (inactive) | 17.6 µM (inactive) | 16.8 µM (inactive) | 4.63 µM (inactive) | 18 µM (inactive) | 14.4 µM (inactive) | 26.9 µM (inactive) | 2.22 µM (inactive) | 15 µM (inactive) | 11.8 µM (inactive) | 16.3 µM (inactive) | 14.6 µM (inactive)
COC(=O)C1(Cc2ccc3c(c2)CCC3)Cc2ccc3c(c2C1=O)CCC3 (stereo not given) | 3.66 µM (inactive) | 5.42 µM (inactive) | 4.35 µM (inactive) | 4.06 µM (inactive) | 3.29 µM (inactive) | 18.6 µM (inactive) | 1.73 µM (inactive) | 3.05 µM (inactive) | 8.22 µM (inactive) | 4.26 µM (inactive) | 4.02 µM (inactive) | 2.55 µM (inactive) | 3.72 µM (inactive) | 4.84 µM (inactive) | 5.46 µM (inactive) | 2.86 µM (inactive) | 4.12 µM (inactive) | 4.26 µM (inactive) | 5.68 µM (inactive) | 6.62 µM (inactive)
C[C@@H](NC(=O)Cn1c(Cl)nc2ccccc21)c1ccccc1 | > 100 µM (inactive) | > 100 µM (inactive) | 17.5 µM (inactive) | > 100 µM (inactive) | > 100 µM (inactive) | > 100 µM (inactive) | > 100 µM (inactive) | > 100 µM (inactive) | > 100 µM (inactive) | > 100 µM (inactive) | > 100 µM (inactive) | > 100 µM (inactive) | > 100 µM (inactive) | > 100 µM (inactive) |  | > 100 µM (inactive) | > 100 µM (inactive) | > 100 µM (inactive) | > 100 µM (inactive) | 46.2 µM (inactive)
N#Cc1c(-c2ccccc2)[nH]c2ccccc2c1=O | 87.5 µM (inactive) | 15.1 µM (inactive) | 66.7 µM (inactive) | > 100 µM (inactive) | > 100 µM (inactive) | > 100 µM (inactive) | 17.4 µM (inactive) | > 100 µM (inactive) | > 100 µM (inactive) | > 100 µM (inactive) | 41.3 µM (inactive) | > 100 µM (inactive) | 21.8 µM (inactive) | > 100 µM (inactive) | 23.9 µM (inactive) | 90.4 µM (inactive) | 47.9 µM (inactive) | 83.6 µM (inactive) | 25.8 µM (inactive) | 
CC(=O)CCCCC(=O)Nc1ccc(CC(NC(=O)OC(C)(C)C)C(=O)NCC(=O)OCc2ccccc2)cc1 (stereo not given) | 19.6 µM (inactive) | 4.44 µM (inactive) | 14.7 µM (inactive) | 24.1 µM (inactive) | 19.6 µM (inactive) | 30.5 µM (inactive) | 21.2 µM (inactive) | 18.5 µM (inactive) | 19.3 µM (inactive) | 17.5 µM (inactive) | 19.3 µM (inactive) | 22.2 µM (inactive) | 18.8 µM (inactive) | 29.1 µM (inactive) | 33.3 µM (inactive) | 19.5 µM (inactive) | 29.4 µM (inactive) | 14.8 µM (inactive) | 14.1 µM (inactive) | 30.8 µM (inactive)
CCCCC/C=C/C/C=C\CCCCCCCC(=O)NC1CC(O)C(O)NC(=O)C2C(O)C(C)CN2C(=O)C(C(C)O)NC(=O)C(C(O)C(O)c2ccc(O)cc2)NC(=O)C2CC(O)CN2C(=O)C(C(C)O)NC1=O (stereo not drawn) (X55-[ξOrn(4,5-diOH)]T[Hyp][ξhTyr(βξ-OH,γξ-OH)]T[ξPro(3ξ-OH,4ξ-Me)]; lactam 1-C; configuration not given here) | > 100 µM (inactive) | > 100 µM (inactive) | > 100 µM (inactive) | > 100 µM (inactive) | > 100 µM (inactive) | > 100 µM (inactive) | > 100 µM (inactive) | > 100 µM (inactive) | > 100 µM (inactive) | > 100 µM (inactive) |  | > 100 µM (inactive) | > 100 µM (inactive) | > 100 µM (inactive) | > 100 µM (inactive) | > 100 µM (inactive) | > 100 µM (inactive) | > 100 µM (inactive) | > 100 µM (inactive) | > 100 µM (inactive)
CCN(CC)c1ccc2cc(-c3nc(O)c4ccccc4n3)c(=N)oc2c1 | > 100 µM (inactive) | > 100 µM (inactive) | > 100 µM (inactive) | > 100 µM (inactive) | > 100 µM (inactive) | > 100 µM (inactive) | > 100 µM (inactive) | > 100 µM (inactive) | > 100 µM (inactive) | > 100 µM (inactive) | > 100 µM (inactive) | > 100 µM (inactive) | > 100 µM (inactive) | > 100 µM (inactive) | > 100 µM (inactive) | > 100 µM (inactive) | > 100 µM (inactive) |  | > 100 µM (inactive) | 
C/C=C(/C)C(=O)O[C@H]1CCN2CC=C(COC(=O)[C@@](O)([C@H](C)OC)C(C)(C)O)[C@H]12 | > 100 µM (inactive) | > 100 µM (inactive) | > 100 µM (inactive) | > 100 µM (inactive) | > 100 µM (inactive) | > 100 µM (inactive) | > 100 µM (inactive) | > 100 µM (inactive) | > 100 µM (inactive) | > 100 µM (inactive) |  | > 100 µM (inactive) | > 100 µM (inactive) | > 100 µM (inactive) | > 100 µM (inactive) | > 100 µM (inactive) | > 100 µM (inactive) | > 100 µM (inactive) | > 100 µM (inactive) | > 100 µM (inactive)
Cn1c2ccccc2n2c(=O)c(-c3ccc(Cl)cc3)nnc12 | > 100 µM (inactive) | > 100 µM (inactive) | > 100 µM (inactive) | > 100 µM (inactive) | > 100 µM (inactive) | > 100 µM (inactive) | > 100 µM (inactive) | > 100 µM (inactive) | > 100 µM (inactive) | > 100 µM (inactive) | > 100 µM (inactive) | > 100 µM (inactive) | > 100 µM (inactive) | > 100 µM (inactive) | > 100 µM (inactive) | > 100 µM (inactive) | > 100 µM (inactive) |  | > 100 µM (inactive) | > 100 µM (inactive)
